Data published in patent US10913757B2, “Hydroxycinnamic derivatives, methods and uses thereof” (UNIVERSIDADE DO PORTO, priority 2016, dated 2021).

Assays:
[1] = tested on: rat liver mitochondria (RLM); experiment: Mitochondrial transmembrane electric potential (ΔΨ) of RLM, safranine fluorescence; assay type: biochemical; conditions: for ΔΨ in succinate-energized mitochondria: AntiOxCIN6 above 5 μM, AntiOxCIN7 10 μM
Experimental: In an embodiment, and as an example, AntiOxCINs and MitoQ toxicity effects on the mitochondrial bioenergetics, namely on RLM ΔΨ and mitochondrial respiration parameters, were measured. The […] represents the main component of the electrochemical gradient generated by mitochondrial respiration and accounts for more than 90% of the total available energy. For mitochondrial respiration assays, glutamate/malate (for complex I) and succinate (for complex II) were used as substrates. In addition, the mitochondrial oxidative phosphorylation coupling index, known as respiratory control ratio (RCR, state 3/state 4 respiration) and ADP/O index (the coupling between ATP synthesis and oxygen consumption) were also calculated. AntiOxCINs and MitoQ were tested at antioxidant-relevant concentrations, with 10 μM being the highest concentration.
In an embodiment, the evaluation of AntiOxCINs functional mitochondrial toxicity profile was performed in rat liver mitochondria (RLM). […] The protein concentration was determined by the biuret assay using BSA as a standard.
Then, 1 μM FCCP was added at the end of all experiments to depolarize mitochondria. ΔΨ was calculated using a calibration curve obtained when RLM were incubated in a K^+-free reaction medium containing 200 mM sucrose, 1 mM NaH2PO4, 10 mM Tris (pH 7.4) and 10 μM EGTA, supplemented with 0.4 μg valinomicin. […] “Repolarization” corresponded to the recovery of membrane potential after the complete phosphorylation of ADP added. Lag phase reflected the time required to phosphorylate the added ADP. […] Data are means±SEM of five independent experiments.

[2] = tested on: rat liver mitochondria (RLM); experiment: AntiOxCINs uptake by energised rat liver mitochondria (TPP-selective electrode); assay type: in vitro ADME; conditions: FIG. 3
Experimental: In an embodiment, and as an example, mitochondrial AntiOxCINs uptake was assessed in isolated rat liver mitochondria (RLM) in response to the membrane potential. AntiOxCINs can accumulate inside mitochondria driven by the ΔΨ (FIG. 3A). Different AntiOxCINs accumulation outlines within the mitochondrial matrix have been noticed. […] However, the linear increase of AntiOxCINs lipophilicity was not directly translated into an increase in the ratio of mitochondrial matrix accumulation (FIG. 3B). The following ranking order was attained: AntiOxCIN1<AntiOxCIN2<[…]<AntiOxCIN3 (catechol series); AntiOxCIN4<AntiOxCIN7<AntiOxCIN6 (pyrogallol series) (FIG. 3C).
In an embodiment, the evaluation of AntiOxCINs functional mitochondrial toxicity profile was performed in rat liver mitochondria (RLM). RLM were prepared by tissue homogenization followed by differential centrifugations in ice-cold buffer containing 250 mM sucrose, 10 mM HEPES (pH 7.4), 1 mM EGTA, and 0.1% fat-free bovine serum albumin. After obtaining a crude mitochondrial preparation, pellets were washed twice and resuspended in washing buffer (250 mM sucrose and 10 mM HEPES, pH 7.4). The protein concentration was determined by the biuret assay using BSA as a standard.
In an embodiment, the AntiOxCINs mitochondria uptake by energized RLM was evaluated as follows: RLM (0.5 mg protein/mL) were incubated with AntiOxCINs at 37° C. under constant stirring in 1 mL of KCl medium (120 mM KCl, 10 mM HEPES, pH 7.2 and 1 mM EGTA). Five sequential 1 μM additions of each AntiOxCINs were performed to calibrate the electrode response in the presence of rotenone (1.5 μM). Then, succinate (10 mM) was added to generate AN. Valinomicin (0.2 μg/mL) was added at the end of the assay to dissipate AN. […] The mitochondrial accumulation ratio was calculated by the disappearance of AntiOxCINs from extra- to intramitochondrial medium assuming an intramitochondrial volume of 0.5 μL/mg protein and a binding correction for the mitochondrial uptake of TPP compounds.

[3] = Iron (II) chelating properties, ferrozine assay; assay type: biochemical; conditions: 100 μM, EDTA=100%, FIG. 2
Experimental: In an embodiment, AntiOxCINs iron (II) chelating properties were evaluated by the ferrozine assay using ethylenediaminetetracetic acid (EDTA) as reference.
In an embodiment, AntiOxCINs iron chelating properties were evaluated by the spectrophotometric ferrozine method performed in a multiplate reader (Powerwave XS Microplate Reader) of Bio-Tech instruments.
In an embodiment, the AntiOxCINs iron chelating properties were evaluated as follows: in each well, a solution of the test compound (100 μM) and ammonium iron (II) sulphate in ammonium acetate (20 μM) were added, incubated for 10 min and the absorbance was read at 562 nm. Then, a freshly prepared solution of ferrozine (5 mM) was added to each well (96 μM final concentration). After a new incubation at 37° C. for 10 min period, the absorbance of [Fe(ferrozine)3]^2+ complex was measured at 562 nm. Blank wells were run using DMSO instead of the test compounds. EDTA was used as a reference. All compounds were tested at a final concentration of 100 μM. The absorbance of the first reading was subtracted to the final values to abolish any absorbance due to the test compounds. Data are means±SEM of three independent experiments and are expressed as % of Fe(II) chelation (EDTA=100%).

Structure (SMILES) | initial slight hyperpolarization ([1]; 2.5 μM) | ADP-induced depolarization (ΔΨ in - mV) ([1]; glutamate/malate, 2.5 μM) | Lag Phase ([1]; glutamate/malate, 2.5 μM) | Maximum potential (ΔΨ in - mV) ([1]; glutamate/malate, 2.5 μM) | Repolarization Potential (ΔΨ in - mV) ([1]; glutamate/malate, 2.5 μM) | ADP-induced depolarization (ΔΨ in - mV) ([1]; glutamate/malate, 5 μM) | Lag Phase ([1]; glutamate/malate, 5 μM) | Maximum potential (ΔΨ in - mV) ([1]; glutamate/malate, 5 μM) | Repolarization Potential (ΔΨ in - mV) ([1]; glutamate/malate, 5 μM) | ADP-induced depolarization (ΔΨ in - mV) ([1]; glutamate/malate, 10 μM) | Lag Phase ([1]; glutamate/malate, 10 μM) | Maximum potential (ΔΨ in - mV) ([1]; glutamate/malate, 10 μM) | Repolarization Potential (ΔΨ in - mV) ([1]; glutamate/malate, 10 μM) | ADP-induced depolarization (ΔΨ in - mV) ([1]; succinate, 2.5 μM) | Lag Phase ([1]; succinate, 2.5 μM) | Maximum potential (ΔΨ in - mV) ([1]; succinate, 2.5 μM) | Repolarization Potential (ΔΨ in - mV) ([1]; succinate, 2.5 μM) | ADP-induced depolarization (ΔΨ in - mV) ([1]; succinate, 5 μM) | Lag Phase ([1]; succinate, 5 μM) | Maximum potential (ΔΨ in - mV) ([1]; succinate, 5 μM) | further results
CS(=O)(=O)[O-].O=C(/C=C/c1ccc(O)c(O)c1)NCCCCCCCC[P+](c1ccccc1)(c1ccccc1)c1ccccc1 [AntiOxCIN3, (E)-(8-(3-(3,4-dihydroxyphenyl)acrylamido)octyl)triphenylphosphoniummethanesulfonate] | 10 mV | 199.4 ± 7.4 mV | 65.8 ± 6.6 s | 238.0 ± 9.8 mV | 234.8 ± 10.3 mV | 200.7 ± 5.5 mV | 68.2 ± 9.6 s | 238.9 ± 8.6 mV | 235.0 ± 8.4 mV | 302.5 ± 6.3 mV | 73.8 ± 12.1 s | 238.0 ± 6.7 mV | 231.5 ± 7.2 mV | 171.5 ± 7.3 mV | 84.6 ± 16.7 s | 191.2 ± 9.1 mV | 186.7 ± 9.3 mV | 174.5 ± 7.7 mV | 92.0 ± 10.3 s | 193.3 ± 7.6 mV | Repolarization Potential (ΔΨ in - mV) ([1]; succinate, 5 μM): 190.4 ± 8.3 mV; ADP-induced depolarization (ΔΨ in - mV) ([1]; succinate, 10 μM): 172.2 ± 7.5 mV; Lag Phase ([1]; succinate, 10 μM): 79.8 ± 17.6 s; Maximum potential (ΔΨ in - mV) ([1]; succinate, 10 μM): 189.7 ± 7.8 mV; Repolarization Potential (ΔΨ in - mV) ([1]; succinate, 10 μM): 184.2 ± 7.6 mV
CS(=O)(=O)[O-].O=C(/C=C/c1cc(O)c(O)c(O)c1)NCCCCCCCC[P+](c1ccccc1)(c1ccccc1)c1ccccc1 [AntiOxCIN5, (E)-(8-(3-(3,4,5-trihydroxyphenyl)acrylamido)octyl)triphenylphosphonium methanesulfonate] | 25 mV | 207.5 ± 6.1 mV | 74.4 ± 10.7 s | 249.8 ± 5.4 mV | 244.7 ± 5.9 mV | 207.5 ± 5.6 mV | 69.8 ± 13.3 s | 244.7 ± 7.0 mV | 236.5 ± 6.8 mV | 184.6 ± 18.7 mV | 53.2 ± 7.6 s | 215.1 ± 22.3 mV | 199.9 ± 26.0 mV | 177.2 ± 7.7 mV | 80.2 ± 11.8 s | 196.2 ± 8.6 mV | 190.6 ± 7.8 mV | 173.6 ± 6.8 mV | 67.2 ± 13.4 s | 190.1 ± 6.8 mV | Repolarization Potential (ΔΨ in - mV) ([1]; succinate, 5 μM): 184.0 ± 7.1 mV; ADP-induced depolarization (ΔΨ in - mV) ([1]; succinate, 10 μM): 162.2 ± 7.7 mV; Lag Phase ([1]; succinate, 10 μM): 58.4 ± 10.2 s; Maximum potential (ΔΨ in - mV) ([1]; succinate, 10 μM): 180.8 ± 4.0 mV; Repolarization Potential (ΔΨ in - mV) ([1]; succinate, 10 μM): 168.4 ± 9.3 mV
CS(=O)(=O)[O-].O=C(/C=C/c1ccc(O)c(O)c1)NCCCCCCCCCC[P+](c1ccccc1)(c1ccccc1)c1ccccc1 [AntiOxCIN6, (E)-(10-(3-(3,4-dihydroxyphenyl)acrylamido)decyl)triphenylphosphonium methanesulfonate] | 10 mV | 202.5 ± 5.7 mV | 73.2 ± 8.8 s | 237.9 ± 5.9 mV | 233.3 ± 6.5 mV | 197.9 ± 5.0 mV | 75.2 ± 12.5 s | 227.5 ± 6.5 mV | 220.7 ± 6.2 mV | 174.2 ± 16.8 mV | 47.8 ± 8.7 s | 200.5 ± 16.80 mV | 185.3 ± 20.8 mV | 166.8 ± 6.1 mV | 77.8 ± 11.2 s | 181.9 ± 6.2 mV | 177.7 ± 4.5 mV | 167.1 ± 5.7 mV | 83.4 ± 11.5 s | 178.3 ± 4.7 mV | ΔΨ in succinate-energized mitochondria [1]: significant decrease of ΔΨ; Repolarization Potential (ΔΨ in - mV) ([1]; succinate, 5 μM): 178.1 ± 5.1 mV; ADP-induced depolarization (ΔΨ in - mV) ([1]; succinate, 10 μM): 143.6 ± 11.0 mV; Lag Phase ([1]; succinate, 10 μM): 62.2 ± 11.2 s; Maximum potential (ΔΨ in - mV) ([1]; succinate, 10 μM): 151.7 ± 9.3 mV; Repolarization Potential (ΔΨ in - mV) ([1]; succinate, 10 μM): 149.0 ± 11.2 mV
CS(=O)(=O)[O-].O=C(/C=C/c1cc(O)c(O)c(O)c1)NCCCCCCCCCC[P+](c1ccccc1)(c1ccccc1)c1ccccc1 [AntiOxCIN7, (E)-(10-(3-(3,4,5-trihydroxyphenyl)acrylamido)decyl)triphenylphosphonium methanesulfonate] | 25 mV | 212.2 ± 7.9 mV | 73.4 ± 8.4 s | 251.8 ± 8.7 mV | 248.3 ± 8.3 mV | 212.6 ± 3.2 mV | 71.0 ± 10.7 s | 248.1 ± 3.3 mV | 243.5 ± 5.0 mV | 197.1 ± 11.8 mV | 58.6 ± 5.4 s | 232.1 ± 9.2 mV | 212.6 ± 18.4 mV | 183.8 ± 6.0 mV | 80.0 ± 14.9 s | 205.3 ± 7.3 mV | 199.4 ± 7.1 mV | 176.2 ± 8.7 mV | 76.0 ± 9.6 s | 191.1 ± 9.0 mV | mitochondrial accumulation ratio [2]: lower accumulation ratio; ΔΨ in succinate-energized mitochondria [1]: significant decrease of ΔΨ; Repolarization Potential (ΔΨ in - mV) ([1]; succinate, 5 μM): 186.8 ± 7.5 mV; ADP-induced depolarization (ΔΨ in - mV) ([1]; succinate, 10 μM): 163.6 ± 3.2 mV; Lag Phase ([1]; succinate, 10 μM): 65.0 ± 8.7 s; Maximum potential (ΔΨ in - mV) ([1]; succinate, 10 μM): 176.9 ± 3.1 mV; Repolarization Potential (ΔΨ in - mV) ([1]; succinate, 10 μM): 171.0 ± 5.0 mV
O=C(O)/C=C/c1ccc(O)c(O)c1 [Caffeic acid, caffeic acid, reference compound] |  |  |  |  |  |  |  |  |  |  |  |  |  |  |  |  |  |  |  |  | iron (II) chelation [3]: able to chelate ferrous iron alike EDTA
